From the NIST ThermoML archive (doi:10.1021/je049662k)

Details: Liquid, Falling or rolling sphere viscometry

Cc1ccccc1 [toluene]
viscosity [mPa·s]
Details | 303.15 K | 313.15 K | 323.15 K | 333.15 K | 343.15 K | 353.15 K
100 kPa | 0.525 | 0.469 | 0.422 | 0.382 | 0.349 | 0.32
1000 kPa | 0.526 | 0.474 | 0.427 | 0.386 | 0.351 | 0.32
5000 kPa | 0.544 | 0.487 | 0.439 | 0.397 | 0.362 | 0.331
10000 kPa | 0.568 | 0.509 | 0.458 | 0.413 | 0.376 | 0.344
15000 kPa | 0.593 | 0.529 | 0.476 | 0.43 | 0.391 | 0.359
20000 kPa | 0.617 | 0.55 | 0.495 | 0.446 | 0.406 | 0.373
25000 kPa | 0.64 | 0.57 | 0.514 | 0.463 | 0.421 | 0.387
30000 kPa | 0.662 | 0.59 | 0.533 | 0.48 | 0.437 | 0.401
35000 kPa | 0.685 | 0.61 | 0.552 | 0.497 | 0.453 | 0.415
40000 kPa | 0.707 | 0.63 | 0.572 | 0.515 | 0.469 | 0.429
45000 kPa | 0.729 | 0.651 | 0.592 | 0.533 | 0.485 | 0.443
50000 kPa | 0.752 | 0.671 | 0.612 | 0.551 | 0.502 | 0.458
55000 kPa | 0.774 | 0.693 | 0.633 | 0.571 | 0.52 | 0.473
60000 kPa | 0.797 | 0.715 | 0.654 | 0.59 | 0.537 | 0.488

CCCCCCC [heptane]
viscosity [mPa·s]
Details | 303.15 K | 313.15 K | 323.15 K | 333.15 K | 343.15 K | 353.15 K
100 kPa | 0.368 | 0.33 | 0.303 | 0.273 | 0.245 | 0.231
1000 kPa | 0.371 | 0.334 | 0.306 | 0.276 | 0.247 | 0.233
5000 kPa | 0.387 | 0.348 | 0.319 | 0.289 | 0.26 | 0.246
10000 kPa | 0.408 | 0.368 | 0.336 | 0.306 | 0.277 | 0.262
15000 kPa | 0.429 | 0.388 | 0.354 | 0.323 | 0.294 | 0.278
20000 kPa | 0.45 | 0.407 | 0.371 | 0.34 | 0.31 | 0.293
25000 kPa | 0.471 | 0.427 | 0.389 | 0.357 | 0.326 | 0.307
30000 kPa | 0.492 | 0.446 | 0.406 | 0.374 | 0.341 | 0.322
35000 kPa | 0.514 | 0.465 | 0.424 | 0.39 | 0.357 | 0.336
40000 kPa | 0.535 | 0.484 | 0.442 | 0.407 | 0.372 | 0.349
45000 kPa | 0.556 | 0.503 | 0.461 | 0.423 | 0.387 | 0.361
50000 kPa | 0.578 | 0.522 | 0.479 | 0.439 | 0.402 | 0.374
55000 kPa | 0.6 | 0.542 | 0.498 | 0.456 | 0.416 | 0.386
60000 kPa | 0.622 | 0.562 | 0.517 | 0.472 | 0.431 | 0.397
